From patent publication US10336702B2, “Pharmaceutically active compounds” (BERGENBIO ASA, priority 2015, dated 2019)

Assays:
[1] = system: MDA-MB-231D3H2LN/GFP-Luc mammary carcinoma cells; test: Lung metastasis after tail vein injection of TNBC cells; type: in vivo, NSG mice; details: 25 mg/kg twice a day
Procedure: Mice injected with MDA-MB-231D3H2LN/GFP-Luc mammary carcinoma cells and treated with vehicle or EX67 (25 mg/kg b.i.d.) over the course of 14 days were injected with D-luciferin (150 mg/kg) IP 10 minutes before being imaged. Whole-body imaging was performed on an Optix MX2 Small Animal Molecular Imager to measure the total photon count for each animal±SEM. n=10 for vehicle and n=10 for EX67 group.
The cellular program of epithelial to mesenchymal transition (EMT) is utilized by tumor cells to metastasize. The effect of EX67 on lung metastases was evaluated in a TNBC model.
NSG mice were injected in the tail vein with 500 000 MDA-MB-231D3H2LN/GFP-Luc mammary carcinoma cells. Mice were treated with Vehicle or 25 mg/kg EX67 twice a day. Metastases to the lung were evaluated by in vivo imaging after 3 weeks. Lung metastases were also evaluated macroscopically at the day of culling (see FIG. 14).
After 14 days, lung metastases were detected in 10/10 mice treated with Vehicle and 7/10 mice treated with EX67.

[2] = system: TNBC cell line MDA-MB-231; test: 3D tumour cell growth in matrigel; type: cell-based; details: MDA-MB-231 in matrigel, increasing concentrations, 9 days, DMSO control
Procedure: MDA-MD-231 cells were treated with increasing concentrations of EX34 or EX33 for 9 days. Treatment was initiated one day after tumour cell seeding. DMSO was used as control. The graphs in FIG. 2 show average tumour size±SEM following treatment with each of EX34 and EX33. Images of the 3D cultures were batch analysed with AMIDA software.
In order to evaluate the role of Akt3 in tumour cell growth and invasion, the effect of two compounds of the invention, the compound of Example 34 (denoted hereafter as EX34) and the compound of Example 33 (denoted hereafter as EX33), on 3D growth in matrigel was assessed.
The TNBC cell line MDA-MB-231 was seeded in matrigel and the cell cultures were treated with increasing concentrations of EX34 or EX33 for 9 days. Treatment was initiated one day after tumour cell seeding. DMSO was used as control. The average tumour sphere size was then evaluated for each treatment. Representative pictures are shown in FIG. 1 for each of the indicated treatment conditions.
Images of the 3D cultures were batch analysed with AMIDA software to quantify the 3D tumour sphere size.

[3] = system: MDA-MB-231-D3H2LN/GPF-Luc cells; test: Invasive 3D tumour cell growth in matrigel; type: cell-based; details: 2 μM, 72 hours, fluorescence microscopy
Procedure: The TNBC aggressive cell line MDA-MB-231-D3H2LN/GPF-Luc was seeded in matrigel on cover slides to obtain invasive 3D tumour cell colonies. Cell cultures were treated for 72 hours with DMSO (control), 2 μM EX34 or 2 μM EX33, and colonies were evaluated by fluorescence microscopy for 3D invasive growth.

Akt3 in MDA-MB-231 cells = test: Cellular (nuclear) localization of Akt3 by immune fluorescence microscopy; type: cell-based; details: 2 μM, 36 hours
Procedure: FIGS. 4 and 5 refer to the cellular localization of Akt3 in MDA-MB-231 cells that were treated for 36 hours with EX33 or EX34. In FIG. 4, cells were stained to visualize the nucleus (top left panel) and Akt3 (top right panel) and analyzed using immune fluorescence microscopy. […] The results were obtained using TissueQuest Software.
The cellular program of epithelial to mesenchymal transition (EMT) is utilized by tumour cells to develop drug resistance and to metastasize. Nuclear translocation of Akt3 is considered crucial for Akt3's ability to phosphorylate SNAIL and induce EMT.
MDA-MB-231 cells were treated for 36 hours with Vehicle (DMSO) or 2 μM EX34. Cells were stained to visualize the nucleus and Akt3. […] Mean intensity of Akt3 in the nucleus was evaluated after treatment with DMSO (control) or EX33 using TissueQuest Software (see FIG. 5).

NSCLC cell line H2086 = test: EMT induction (Vimentin immune blotting) with TGF-β under hypoxia; type: cell-based; details: H2086 cells, 20 ng/ml TGF-β, 1% O2, 5 days, 1 μM compound
Procedure: EMT induction was evaluated by quantification of the EMT marker Vimentin. NSCLC H2086 cells were treated with 20 ng/ml TGF-β under hypoxic conditions (1% O2) for 5 days. The effect on Vimentin was evaluated by immune blotting for cells treated with Vehicle (DMSO), 1 μM EX33 or 1 μM EX34, and the results are shown in FIG. 7. Glyceraldehyde-3-phosphate dehydrogenase (GAPDH) was used as loading control. The band intensity of Vimentin has been related to the intensity of the GAPDH band.
NSCLC H2086 cells were treated with 20 ng/ml TGF-β under hypoxic conditions (1% O2) for 5 days to induce EMT. The ability of EX33 and EX34 to prevent EMT was evaluated by quantification of the EMT marker Vimentin. The effect on Vimentin was evaluated by immune blotting for cells treated with Vehicle (DMSO), 1 μM EX33 or 1 μM EX34. GAPDH was used as loading control. The band intensity of Vimentin has been related to the intensity of the GAPDH band.

NSCLC cell line H2073 = test: Cell viability with paclitaxel (resazurin reduction) in paclitaxel-resistant cells; type: cell-based; details: paclitaxel with or without compound, 72 hours
Procedure: Cell viability was evaluated using resazurin reduction. Average±SEM are shown, n=3.
The NSCLC cell line H2073 was established from a patient that was resistant to treatment with paclitaxel.
H2073 cells were treated with increasing dosages of paclitaxel in the absence or presence of EX34 for 72 hours, and cell viability was evaluated using resazurin reduction. Average±SEM are shown, n=3.

HMLER-Akt3 cells = test: HMLER-Akt3 tumour seeding xenograft model; type: in vivo, NSG mice; details: for tumour initiation: 100 mg/kg once a day from day of implantation; for Tumour incidence (tumours formed/total number of implantations): 100 mg/kg once a day, after 2 weeks, tumours exceeding 20 mm^3
Procedure: HMLER cells are not very tumourigenic. However, after enforced expression of Akt3, these cells are able to initiate tumours.
Mice implanted with 10^5 or 10^6 HMLER-Akt3 cells were treated with vehicle, EX34 or EX33 at 100 mg/kg once a day. Treatment was initiated on the day of tumour cell implantation. A total of 10 tumours were implanted for each treatment condition. Tumour incidence was evaluated after 2 weeks and tumour size cut of was set at 20 mm^3. Significance determined by unpaired Student two-tailed t test.
The numbers are given as tumours formed/total number of implantations. Significance was determined by unpaired two-tailed Student t-test. Ns: not significant.

[4] = system: hepatic stellate cell line LX2; test: α-sma protein and mRNA levels in activated hepatic stellate cells; type: cell-based, human
Procedure: LX2 cells were treated for 72 hours with the indicated dosages of EX33 (μM). Cell lysates were analyzed by immune blotting for alpha-smooth muscle actin (α-SMA), PCNA and total p-Akt. Actin was used as a loading control.
LX2 cells were treated for 24 hours with the indicated dosages of EX33 (μM). mRNA was isolated and analyzed by RT-PCR for α-SMA expression. Expression level in Vehicle treated cells (0 EX33) was set to 1, and α-sma expression levels following treatment with indicated dosages of EX33 calculated relative to that.
Liver fibrosis is characterized by accumulation of extracellular matrix components such as alpha-smooth muscle actin (α-sma) mainly derived from activated hepatic stellate cells (HSCs).
The role of AKT3 in liver fibrosis was analyzed by studying the efficacy of EX33 to block HSC activation. The human activated hepatic stellate cell line LX2 was treated with different dosages of EX33 and the effects on α-sma protein and mRNA levels were analysed by immune blotting (see FIG. 9) and RT-PCR (see FIG. 10) respectively.

[5] = system: pAkt1, pAkt2 and pAkt3 in MCF10DCIS xenograft tumours; test: Akt phosphorylation in MCF10DCIS xenograft tumours (SureFire); type: in vivo, mice; details: 25 mg/kg oral gavage once a day for 2, 4 or 6 days; pAkt1, pAkt2, pAkt3 measured
Procedure: Mice carrying MCF10DCIS xenograft tumours were treated with Vehicle or EX33 at 25 mg/kg once a day for 2, 4 or 6 days. Tumours were harvested and analyzed by SureFire assay for levels of pAkt1, pAkt2 and pAkt3. Average±SEM are shown, n=4.
Nude mice were injected subcutaneously with MCF10DCIS cells. When the average tumour size reached 440 mm^3, EX33 was administered at 25 mg/kg for 2, 4 or 6 days. EX33 was given by oral gavage once a day. Tumours were harvested and analyzed by SureFire assay for levels of pAkt1, pAkt2 and pAkt3. Average±SEM are shown, n=4.

MDA-MB-468 cells = test: TNBC MDA-MB-468 subcutaneous xenograft model; type: in vivo, NSG mice; details: 50 mg/kg b.i.d. oral gavage, 5-days on 2-days off, 19 days
Procedure: Tumour volumes of mice treated with vehicle or EX33 (50 mg/kg b.i.d.) were measured by caliper twice a week, over the course of 19 days. Data is given as Mean±SEM, n=6-10. Statistical analysis was performed by an unpaired two-tailed Student t test.
The MDA-MB-468 model has previously been reported in the literature to be dependent upon Akt3 for xenograft tumour growth (Chin et al., Cancer Res 2014).
NSG mice were injected subcutaneously with MDA-MB-468 cells, and the effect on tumour growth of EX33 was evaluated. EX33 was administered at 50 mg/kg, and was given by oral gavage twice a day in a 5-days on and 2-days off cycle. Tumour growth was monitored by caliper measurements twice a week.
Data are given as Mean±SEM, n=6-10. Statistical analysis was performed by unpaired two-tailed Student t test.

[6] = system: MBBR3A human melanoma cancer cell line; test: MBBR3A human melanoma sub-cutaneous xenograft model; type: in vivo, Nude mice; details: 50 mg/kg b.i.d. oral gavage, 5-days on 2-days off, 15 days
Procedure: Tumour volumes of mice treated with vehicle or EX33 (50 mg/kg b.i.d.) were measured by caliper twice a week, over the course of 15 days. Data is given as Mean±SEM, n=10-12. Statistical analysis was performed by an unpaired two-tailed Student t test.
Nude mice were injected subcutaneously with MBBR3A cells, and the effect on tumour growth of EX33 was evaluated. EX33 was administered at 50 mg/kg EX33 given by oral gavage twice a day in a 5-days on and 2-days off cycle. Tumour growth was monitored by caliper measurements twice a week.
Data are given as Mean±SEM, n=10-12. Statistical analysis was performed by unpaired two-tailed Student t test.

[7] = 10^5 HMLER-Akt3 cells implanted
[8] = 10^6 HMLER-Akt3 cells implanted

Structure (SMILES) | lung metastases [1] | mice with lung metastases detected ([1]; after 14 days, vehicle 10/10) | 3D tumour cell growth (average tumour sphere size) [2] | invasive 3D tumour cell growth [3] | nuclear localization of Akt3 (Akt3 in MDA-MB-231 cells) | EMT induction (EMT marker Vimentin) (NSCLC cell line H2086) | sensitivity to paclitaxel (cell viability) (NSCLC cell line H2073) | tumour initiation (HMLER-Akt3 cells) | Tumour incidence (tumours formed/total number of implantations) (HMLER-Akt3 cells; [7]) | Tumour incidence (tumours formed/total number of implantations) (HMLER-Akt3 cells; [8]) | α-sma mRNA level ([4]; 24 hours, RT-PCR) | α-sma protein level ([4]; 72 hours, immune blotting) | level of Akt3 phosphorylation in xenograft tumours [5] | primary tumour growth (tumour volume) (MDA-MB-468 cells) | primary tumour growth (tumour volume) [6]
COC(=O)N(C)[C@H]1CC[C@H](CC(=O)Nc2cc(-c3ccccc3)c(-c3ccc([C@]4(N)C[C@](C)(O)C4)cc3)cn2)CC1 [EX67] | prevented metastases compared to vehicle-treated mice in a sub-set of animals | 7/10 |  |  |  |  |  |  |  |  |  |  |  |  | 
COC(=O)N(C)[C@H]1CC[C@H](CC(=O)Nc2cnc(-c3ccc(C(C)(C)N)cc3)c(-c3ccccc3)c2)CC1 [EX34] |  |  | dose-dependent inhibition of 3D tumour cell growth | inhibited tumour cell growth | prevents nuclear localization of Akt3 | prevent EMT induction | sensitizes the paclitaxel resistant cell line H2073 to paclitaxel | prevented tumour initiation | 3/10^ns | 0/10^0.0002 |  |  |  |  | 
CC(=O)N(C)[C@H]1CC[C@H](CC(=O)Nc2cc(-c3ccccc3)c(-c3ccc(C4(N)CCC4)cc3)cn2)CC1 [EX33] |  |  | dose-dependent inhibition of 3D tumour cell growth | inhibited tumour cell growth | Akt3 stains cytoplasmic | prevent EMT induction |  | prevented tumour initiation | 0/10^<0.0001 | 0/10^<0.0001 | decreases the levels of α-sma mRNA and protein | decreases the levels of α-sma mRNA and protein | selectively reduced the level of Akt3 phosphorylation | reduced tumour growth compared to vehicle treated mice | reduced tumour growth compared to vehicle treated mice
